# Experimental data published in patent publication US8263655B2, “Methods for treatment of renal failure” (Technion Research and Development Foundation Ltd, priority 2005, dated 2012).
# Key:
# rats with CHF = experiment: Chronic administration to rats with experimental congestive heart failure (aortocaval fistula), renal excretory parameters; format: in vivo, Sprague Dawley rats; settings: for diuretic and natriuretic responses in rats with congestive heart failure: summary statement
# Experimental: (§1) (ii) Animals. Studies were conducted on Sprague Dawley rats (Harlan Laboratories Ltd., Jerusalem, Israel), weighing 290˜330 g. The animals were kept in a temperature-controlled room, and were fed standard rat chow containing 0.5% NaCl and tap water ad libitum. All experiments were performed according to the guidelines of the Technion Committee for Supervision of Animal Experiments (Haifa, Israel). Rats were subjected to one of the experimental protocols, described in Examples 1 and 2 hereinafter.
# (§2) (iii) Chemical analysis. Sodium concentration in plasma and urine was determined by flame photometry (model IL 943, Instrumentation Laboratory). Inulin and creatinine concentrations were determined by the colorimetric anthrone method. Glomerular filtration rate (GFR) was equated with the clearance of inulin or creatinine.
# Following surgery, the rats were allowed to recover and housed in individual metabolic cages for measurements of daily urine volume and urinary sodium/potassium excretion.
# Rasagiline or S-(−)-N-propargyl-1-aminoindan were dissolved in drinking water and given orally at a dose of 1 or 7.5 mg/kg/day for 5 days to normal rats. Following this period, the animals were subjected either to sham operation (n=6) or to creation of aortocaval fistula (ACF) (n=6) as described above. These experimental groups were treated daily by gavage with 1 or 7.5 mg/kg of rasagiline or S-(−)-N-propargyl-1-aminoindan for additional 14 days, and their daily urine volume, sodium and potassium excretion were measured. Rats treated with vehicle (water) served as controls. After completion of the treatment period, animals from the different experimental groups were killed by decapitation and their blood was collected in pre-cooled tubes. Rats with sham operation or animals with arterio-venous fistula treated with vehicle served as controls.
# rats with renal ischemia = experiment: Rat renal ischemia-reperfusion injury (IRI) model of acute renal failure, renal clearance study; format: in vivo, Sprague Dawley rats; settings: for diuretic and natriuretic responses and GFR in the ischemic kidney: summary statement
# Experimental: as §1, §2
# For this purpose, the effects of either rasagiline or S-(−)-N-propargyl-1-aminoindan on renal clearance parameters, i.e., glomerular filtration rate (GFR), absolute and fractional sodium excretion rates (UNaV and FENa, respectively), and urinary flow (V) were studied in rats that underwent renal ischemia. Rats that underwent the same procedure, but were treated with vehicle, served as controls.
# The surgical procedure for the induction of renal ischemia has been previously described (Sela et al., 1992). Briefly, the animals were anesthetized with Inactin (100 mg/kg, i.p.), placed on a thermo-regulated (37° C.) surgical table and prepared for hemodynamic and clearance studies (Brodsky et al., 1998). After tracheotomy, polyethylene tubes (PE50) were inserted into the carotid artery, jugular vein and urinary bladder for blood pressure monitoring, infusion of various solutions and urine collections, respectively. A solution of 2% inulin in 0.9% saline was infused throughout the experiment at a rate of 1.0% of body weight per hour. […] Then, the left kidney was exposed and the renal artery was clamped for forty-five minutes of ischemia, followed by 60 min of reperfusion. The right kidney served as the control, for each animal. Thirty minutes prior to the induction of the renal ischemia, animals were treated with either rasagiline or S-(−)-N-propargyl-1-aminoindan administered as a bolus injection (1.0 mg/kg, I.V.), followed by a sustained infusion of the drugs at a dose of 2 mg/kg/h throughout the whole experiment. Animals treated with saline served as controls. Then, two additional clearance periods were obtained under the influence of the drug. Urine volume was determined gravimetrically. Blood samples were obtained in the midst of every 2nd clearance period.
Compound,"GFR (creatinine clearance test) (rats with CHF; rats with CHF, 1 or 7.5 mg/kg/day by gavage for 2 weeks, FIG. 6)","urinary flow rate (daily urine volume) (rats with CHF; rats with CHF, 1 or 7.5 mg/kg/day orally, 14 days after fistula, FIGS. 3A-3B)","absolute (daily) urinary sodium excretion (rats with CHF; rats with CHF, 1 or 7.5 mg/kg/day orally, 14 days, FIG. 4)","cumulative urinary sodium excretion (rats with CHF; rats with CHF, 1 or 7.5 mg/kg/day orally, 14 days, FIG. 5)",diuretic and natriuretic responses in rats with congestive heart failure (rats with CHF),"glomerular filtration rate (GFR), function of the ischemic kidney (rats with renal ischemia; ischemic (left) kidney, 1.0 mg/kg I.V. bolus 30 min prior to ischemia, then 2 mg/kg/h infusion, 45 min ischemia, 60 min reperfusion, FIG. 1B)","fractional excretion of Na+ (FENa) by ischemic kidney (rats with renal ischemia; ischemic kidney, 1.0 mg/kg I.V. bolus, then 2 mg/kg/h infusion, FIG. 2B)","fractional excretion of Na+ (FENa) by normal kidney (rats with renal ischemia; normal kidney, 1.0 mg/kg I.V. bolus, then 2 mg/kg/h infusion, FIG. 2A)",diuretic and natriuretic responses and GFR in the ischemic kidney (rats with renal ischemia; ischemic kidney)
C#CCN[C@H]1CCc2ccccc21 [S-(−)-N-propargyl-1-aminoindan],enhanced GFR,increased the urinary flow rate,markedly enhanced,markedly enhanced,significant diuretic and natriuretic responses,improved the function of the ischemic kidney,enhanced FENa by ischemic kidney more than rasagiline,increased the fractional excretion of Na^+ (FENa) by normal kidney,diuretic and natriuretic responses accompanied by improved GFR
"C#CCN[C@@H]1CCc2ccccc21 [rasagiline, R(+)-N-propargyl-1-aminoindan, reference compound]",,,,,significant diuretic and natriuretic responses,,,,diuretic and natriuretic responses accompanied by improved GFR
